This is an account of results in patent US20200317639A1, “POLYMORPHS OF N-[(2,6-DIFLUORO-3-METHOXYPHENYL)METHYL]-3-(METHOXYMETHYL)-1-({4-[(2-OXOPYRIDIN-1YL)METHYL]PHENYL}METHYL)PYRAZOLE-4-CARBOXAMIDE” (KALVISTA PHARMACEUTICALS LIMITED, priority 2016, published 2020).

In data set [1] the test system is postoperative bleeding. The note with it: in vivo; cited from earlier work.
For data set [2] the following is noted: in vivo; cited from earlier work.
For data set [3], the system named is rats. The note with it: systemic administration; cited from earlier work.
A short description of data set [4]: Stability study, open vial, 40° C./75% RH, 7 and 28 days. It counts as physicochemical. Conditions: for XRPD change on storage: open glass vial covered with tissue. How it is done:
Further evidence of the suitability of the crystalline forms for pharmaceutical development is provided by the stability data disclosed herein. Form 1 of N-[(2,6-difluoro-3-methoxyphenyl)methyl]-3-(methoxymethyl)-1-({4-[(2-oxopyridin-1-yl)methyl]phenyl}methyl)pyrazole-4-carboxamide was stored at 40° C./75% RH in a open glass vial covered with tissue. […] (FIG. 3).
A sample of Form 1 was placed in an open vial covered with tissue in a dessicator under accelerated stability conditions of 40° C./75% RH. The sample was reanalysed after 7 days and 28 days by XRPD, STA and DSC using the same methods as described above.

Data set [5] in a line: Stability study, 40° C./75% RH 6 months and 25° C./60% RH 12 months, packed. The format is physicochemical. How it is done:
Yet further evidence of the suitability of the crystalline forms for pharmaceutical development is provided by additional stability data disclosed herein. Form 1 of N-[(2,6-difluoro-3-methoxyphenyl)methyl]-3-(methoxymethyl)-1-({4-[(2-oxopyridin-1-yl)methyl]phenyl}methyl)pyrazole-4-carboxamide was stored separately at two conditions of 40° C./75% RH for 6 months and 25° C./60% RH for 12 months packed into double polyethylene bags inside an HDPE bottle sealed with a screw cap closure.
Further samples of Form 1 were stored separately at two conditions of 40° C./75% RH for 6 months and 25° C./60% RH for 12 months packed into double polyethylene bags inside an HDPE bottle sealed with a screw cap closure. In this stability study X-Ray Powder Diffraction patterns were collected on a PANalytical X'Pert PRO diffractometer using CuKα radiation (45 kV, 40 mA), θ-θ goniometer, focusing mirror (Cu W/Si), divergence slit (½°), soller slits at both incident and diffracted beam (0.04 RAD), fixed mask (4 mm) and a PIXcel detector. The software used for data collection was X′Pert Data Collector, version 2.2f. The instrument was performance checked using a certified Standard Reference Material 640 d, Silicon Powder (NIST). XRPD patterns were acquired under ambient conditions via a transmission foil sample stage (polyimide—Kapton, TF-475, 7.5 μm thickness film). The specimen was examined with approximately 5 mg of the sample examined as dispensed onto the sample stage. The data collection range was 2.994-35.0056° […] with a step size of 0.0263° and a continuous scan speed of 0.202004° s^−1. No change in the XRPD diffractogram was observed after 6 months at 40° C./75% RH or after 12 months at 25° C./60% RH (FIG. 16).
Further tests on the samples of Form 1 stored at 25° C./60% RH and 40° C./75% RH were carried out as described in the table below.

Data set [6] is described as follows: Gravimetric Vapour Sorption (GVS). It counts as physicochemical. How it is done:
Gravimetric Vapour Sorption (GVS) data were collected using the following method: Approximately 10 mg of sample was placed into a wire-mesh vapour sorption balance pan and loaded into an ‘IgaSorp’ vapour sorption balance (Hiden Analytical Instruments). The sample was then dried by maintaining a 0% humidity environment until no further weight change was recorded. Subsequently, the sample was then subjected to a ramping profile from 0-90% RH at 10% RH increments, maintaining the sample at each step until equilibration had been attained (99% step completion). Upon reaching equilibration, the % RH within the apparatus was ramped to the next step and the equilibration procedure repeated. After completion of the sorption cycle, the sample was then dried using the same procedure. The weight change during the sorption/desorption cycles were then monitored, allowing for the hygroscopic nature of the sample to be determined.

Entries after “also recorded” stand apart in the source; their conditions may differ.

Consider aprotinin, for which the Postoperative bleeding entry in data set [1] is listed as “may be used to decrease postoperative bleeding”.
For the compound `N=C(N)c1ccc(CNC(=O)c2cnn(Cc3ccccc3)c2)cc1` [ASP-440], the Oral availability result in data set [2] was “poor oral availability”. Besides, the Hematoma expansion entry in data set [3] is “reduced hematoma expansion”.
Regarding `COCc1nn(Cc2ccc(Cn3ccccc3=O)cc2)cc1C(=O)NCc1c(F)ccc(OC)c1F` [Form 1, N-[(2,6-difluoro-3-methoxyphenyl)methyl]-3-(methoxymethyl)-1-({4-[(2-oxopyridin-1-yl)methyl]phenyl}methyl)pyrazole-4-carboxamide], the “XRPD change on storage” value is “no change” in data set [4] (40° C./75% RH, 7 days) and “no change” in data set [4] (40° C./75% RH, 28 days). Moreover, the DSC onset temperature in data set [4] (40° C./75% RH, open vial, after 7 days) is 155.2 °C; in data set [4] (40° C./75% RH, open vial, after 28 days) it was 155.0 °C; in data set [4] (initial timepoint), 154.9 °C. Besides, the Appearance entry in data set [5] (25° C./60% RH, 12 months) was “As initial”; in data set [5] (40° C./75% RH, 6 months), “As initial”; in data set [5] (Initial, 0 months) it was “A white solid. Free from”. The “Assay (% w/w on an anhydrous basis)” value in data set [5] (25° C./60% RH, 12 months) stood at 99.94 % w/w; in data set [5] (40° C./75% RH, 6 months), 99.31 % w/w; in data set [5] (Initial, 0 months), 100.18 % w/w. Moreover, the “Assay (% w/w “as-is”)” value in data set [5] (25° C./60% RH, 12 months) came to 99.78 % w/w; in data set [5] (40° C./75% RH, 6 months), 99.1 % w/w. Moreover, the “DSC Onset” value was “Onset = 156.8 °C” in data set [5] (25° C./60% RH, 12 months); “Onset = 157.5 °C” in data set [5] (40° C./75% RH, 6 months); “Onset = 156.3 °C” in data set [5] (Initial, 0 months). Also, the “DSC Peak” value is “Peak = 159.5 °C” in data set [5] (25° C./60% RH, 12 months); “Peak = 159.8 °C” in data set [5] (40° C./75% RH, 6 months); “Peak = 158.9 °C” in data set [5] (Initial, 0 months). In addition, the “Purity (% area)” value in data set [5] (25° C./60% RH, 12 months) is 100 % area; in data set [5] (40° C./75% RH, 6 months), 99.99 % area; in data set [5] (Initial, 0 months), 100 % area. In addition, the “Water content (% w/w)” value in data set [5] (25° C./60% RH, 12 months) is recorded as 0.12 % w/w; in data set [5] (40° C./75% RH, 6 months), 0.17 % w/w; in data set [5] (Initial, 0 months) it was 0.19 % w/w. In addition, the XRPD entry was “no change; also recorded: As initial” in data set [5] (25° C./60% RH, 12 months); “no change; also recorded: As initial” in data set [5] (40° C./75% RH, 6 months); “Conforms to Form 1” in data set [5] (Initial, 0 months). The “Impurity Profile by HPLC (% area), Approx RRT 1.16” value in data set [5] (40° C./75% RH, 6 months) was determined as 0.03 % area. The “Impurity Profile by HPLC (% area), Approx RRT 1.12” value in data set [5] (Initial, 0 months) came out at 0.03 % area. Further, the “All measured parameters including Assay, Water Content, XRPD, DSC, Purity and Impurity Profile” value in data set [5] (over the course of the study (6 months 40° C./75% RH, 12 months 25° C./60% RH)) is on record as “remained unchanged”. Moreover, in data set [6], the “Hygroscopicity by GVS” value is recorded as “absence of significant hygroscopicity”. The “%-Wt (dry basis), Adsorption” value in data set [6] (0.007 %-RH) was 0.000001 %-Wt; in data set [6] (0.008 %-RH), 0.001373 %-Wt; in data set [6] (10.023 %-RH), 0.07544 %-Wt; in data set [6] (20.021 %-RH), 0.1619 %-Wt; in data set [6] (30.013 %-RH), 0.2634 %-Wt; in data set [6] (40.002 %-RH), 0.3978 %-Wt. In addition, the “%-Wt (dry basis), Adsorption” value in data set [6] (50.002 %-RH) came to 0.5926 %-Wt; in data set [6] (59.996 %-RH), 0.8573 %-Wt; in data set [6] (69.993 %-RH), 1.311 %-Wt; in data set [6] (79.987 %-RH) it was 2.17 %-Wt; in data set [6] (89.98 %-RH) it was 4.173 %-Wt. The “%-Wt (dry basis), Desorption” value in data set [6] (0.32 %-RH) came to 0.002745 %-Wt; in data set [6] (5 %-RH) it was 0.04664 %-Wt; in data set [6] (14.995 %-RH), 0.09053 %-Wt; in data set [6] (24.99 %-RH), 0.1934 %-Wt; in data set [6] (34.982 %-RH) it was 0.2908 %-Wt; in data set [6] (44.976 %-RH) it was 0.4554 %-Wt. Moreover, the “%-Wt (dry basis), Desorption” value in data set [6] (55.026 %-RH) was 0.6474 %-Wt; in data set [6] (65.02 %-RH), 1.033 %-Wt; in data set [6] (75.011 %-RH), 1.653 %-Wt; in data set [6] (85.005 %-RH) it was 2.905 %-Wt; in data set [6] (89.98 %-RH) it was 4.173 %-Wt. In addition, in data set [6] (FIG. 4), the “Reversibility of hydration (hysteresis) by GVS” value is recorded as “hydration is reversible (i.e. no significant hysteresis)”. Further, in data set [6] (normal conditions (up to 70% relative humidity)), the “Increase in water content by GVS” value is “only a relatively gradual increase in water content”.
